Reference: US6485953B1, “Enzyme capable of hydorlyzing plaque, microorganism producing the same, and a composition comprising the same” (Lifenza Co. Ltd., priority 1999, dated 2002)

How the values were obtained:
[1] = test system: dextranase activity of DXAMase; assay: Stability test: dextranase activity of DXAMase in presence of enzyme inhibitors and mouthwash chemicals; format: biochemical, Lipomyces starkeyi KSM 22
Description: Dextranase activity is determined by measuring the amount of isomaltose produced by the reaction of an enzyme solution in a buffer solution containing 2% dextran for 15 min at 37° C. Dextranase 1 IU is defined as the amount of the enzyme that produces 1 μmol of isomaltose when reaction is carried out by using dextran as a substrate for 1 min at 37° C.
(§1) To test the stabilization of dextranase and amylase activities of DXAMase by chemicals comprising mouthwash solution, the enzyme activity was measured in the presence of the enzyme inhibitors and chemicals in the mouthwash solutions in Table 2. In 1 mL of each chemical solution, 5 IU of DXAMase was added and reacted for 5 min at 37° C. Reaction was further carried out by adding 2% dextran or starch of an equal volume.

[2] = test system: amylase activity of DXAMase; assay: Stability test: amylase activity of DXAMase in presence of enzyme inhibitors and mouthwash chemicals; format: biochemical, Lipomyces starkeyi KSM 22
Description: Amylase activity is measured by reacting the enzyme solution in a buffer solution containing 2% starch for 15 min at 37° C.
as §1

[3] = inhibitor concentration 10 mM, 5 IU DXAMase, 5 min at 37° C.

**Q.** What does the source list for [H]/N=C(\N/C(=N/[H])NCCCCCCNC(=N)NC(=N)Nc1ccc(Cl)cc1)Nc1ccc(Cl)cc1 [Chlorhexydine]?
**A.** effect on enzymatic activity of DXAMase (dextranase and amylase), in words ([1]; 5 IU DXAMase in 1 mL chemical solution, 5 min at 37° C.): did not decrease; Relative activity (%) Dextranase ([1]; inhibitor concentration 0.01%): 98%; Relative activity (%) Dextranase ([1]; inhibitor concentration 0.02%): 98%; Relative activity (%) Dextranase ([1]; inhibitor concentration 0.05%): 97%; Relative activity (%) Dextranase ([1]; inhibitor concentration 0.1%): 93%; Relative activity (%) Amylase ([2]; inhibitor concentration 0.01%): 98%; Relative activity (%) Amylase ([2]; inhibitor concentration 0.02%): 97%; Relative activity (%) Amylase ([2]; inhibitor concentration 0.05%): 97%; Relative activity (%) Amylase ([2]; inhibitor concentration 0.1%): 96%

**Q.** O=C(O)CN(CCN(CC(=O)O)CC(=O)O)CC(=O)O [EDTA] was tested. Which “Relative activity (%) Dextranase” value [1, 3] did it give?
**A.** The value was 100%.

**Q.** And the “Relative activity (%) Amylase” value [2, 3]?
**A.** The value was 100%.

**Q.** With CCO [Ethanol] as the compound, how does the “Relative activity (%) Dextranase” value ([1]; inhibitor concentration 1%) read?
**A.** The value was 99%.

**Q.** What about the “Relative activity (%) Dextranase” value ([1]; inhibitor concentration 5%) of the same compound?
**A.** Its value is 98%.

**Q.** And the “Relative activity (%) Dextranase” value ([1]; inhibitor concentration 10%)?
**A.** Its value is 98%.

**Q.** What about the “Relative activity (%) Dextranase” value ([1]; inhibitor concentration 20%) of the same compound?
**A.** The value was 97%.

**Q.** And the “Relative activity (%) Amylase” value ([2]; inhibitor concentration 1%)?
**A.** Its value is 100%.

**Q.** And the “Relative activity (%) Amylase” value ([2]; inhibitor concentration 5%)?
**A.** Its value is 98%.

**Q.** What about the “Relative activity (%) Amylase” value ([2]; inhibitor concentration 10%) of the same compound?
**A.** Its value is 97%.

**Q.** And the “Relative activity (%) Amylase” value ([2]; inhibitor concentration 20%)?
**A.** Its value is 97%.

**Q.** Which “Relative activity (%) Dextranase” value ([1]; inhibitor concentration 0.05%) does the source give for F [Fluoride] here?
**A.** The value was 94%.

**Q.** And the “Relative activity (%) Amylase” value ([2]; inhibitor concentration 0.05%)?
**A.** The value was 91%.

**Q.** For CC(O)CO (centres unmarked) [Propylene glycol], which “Relative activity (%) Dextranase” value ([1]; inhibitor concentration 1%) is on record?
**A.** The value was 100%.

**Q.** What about the “Relative activity (%) Amylase” value ([2]; inhibitor concentration 1%) of the same compound?
**A.** Its value is 100%.

**Q.** How did the “Relative activity (%) Dextranase” value ([1]; inhibitor concentration 0.05%) turn out when CCCCCCCCCCCCOS(=O)(=O)[O-].[Na+] [SDS] was run?
**A.** The value was 91%.

**Q.** What about the “Relative activity (%) Dextranase” value ([1]; inhibitor concentration 0.5%) of the same compound?
**A.** The value was 85%.

**Q.** And the “Relative activity (%) Amylase” value ([2]; inhibitor concentration 0.05%)?
**A.** Its value is 92%.

**Q.** And the “Relative activity (%) Amylase” value ([2]; inhibitor concentration 0.5%)?
**A.** Its value is 68%.

**Q.** O=C([O-])c1ccccc1.[Na+] [Sodium benzoate] was tested. Which “Relative activity (%) Dextranase” value ([1]; inhibitor concentration 1%) did it give?
**A.** Its value is 100%.

**Q.** What about the “Relative activity (%) Amylase” value ([2]; inhibitor concentration 1%) of the same compound?
**A.** Its value is 100%.
